Experimental data published in patent US20100035926A1, “PYRAZOLE DERIVATIVES AS NON-STEROIDAL GLUCOCORTICOID RECEPTOR LIGANDS” (priority 2006, published 2010).

Experiments:
[1] = target: T1, Progesterone Receptor (Homo sapiens, UniProt P06401); experiment: Assay for Progesterone Receptor Agonist Activity (CV-1 cells, PRb-BacMam, MMTV-BacMam); assay type: cell-based; conditions: at least once in this assay, read-out: progesterone receptor agonist pEC50 (converted)
T1 construct: expressed in transfected cells; host or cells: CV-1 cells transduced with PRb-BacMam and MMTV-BacMam
T1 sequence (P06401 1-933): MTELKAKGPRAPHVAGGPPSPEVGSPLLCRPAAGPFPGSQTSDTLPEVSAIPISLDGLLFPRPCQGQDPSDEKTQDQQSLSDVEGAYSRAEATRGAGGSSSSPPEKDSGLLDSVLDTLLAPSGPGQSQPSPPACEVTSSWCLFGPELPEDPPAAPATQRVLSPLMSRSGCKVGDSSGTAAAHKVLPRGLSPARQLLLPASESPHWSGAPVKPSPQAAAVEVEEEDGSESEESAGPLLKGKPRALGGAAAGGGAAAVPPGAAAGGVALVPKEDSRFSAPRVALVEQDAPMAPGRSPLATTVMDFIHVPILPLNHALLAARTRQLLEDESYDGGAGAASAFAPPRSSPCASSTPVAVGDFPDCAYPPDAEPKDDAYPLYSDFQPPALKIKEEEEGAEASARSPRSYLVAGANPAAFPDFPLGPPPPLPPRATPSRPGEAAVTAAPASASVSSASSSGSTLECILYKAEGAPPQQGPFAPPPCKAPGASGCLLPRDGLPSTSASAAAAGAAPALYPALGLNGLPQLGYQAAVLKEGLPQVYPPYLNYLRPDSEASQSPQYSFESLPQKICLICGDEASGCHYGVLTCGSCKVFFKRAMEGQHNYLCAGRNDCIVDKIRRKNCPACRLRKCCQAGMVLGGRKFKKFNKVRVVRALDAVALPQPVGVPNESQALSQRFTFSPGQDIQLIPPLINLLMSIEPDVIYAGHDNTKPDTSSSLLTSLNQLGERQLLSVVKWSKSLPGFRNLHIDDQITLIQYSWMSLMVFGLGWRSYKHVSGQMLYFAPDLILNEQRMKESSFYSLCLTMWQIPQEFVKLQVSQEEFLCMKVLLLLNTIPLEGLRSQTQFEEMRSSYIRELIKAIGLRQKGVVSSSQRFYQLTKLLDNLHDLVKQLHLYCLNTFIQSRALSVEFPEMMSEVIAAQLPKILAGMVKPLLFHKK

[2] = target: T2, glucocorticoid receptor (Homo sapiens, UniProt P04150); experiment: Glucocorticoid Receptor Binding Assay (fluorescence polarisation, displacement of Alexa 555 labelled dexamethasone derivative); conditions: at least once in this assay; read-out: glucocorticoid binding pIC50 (converted)
T2 construct: a partially purified full length glucocorticoid receptor
T2 sequence (P04150 1-777): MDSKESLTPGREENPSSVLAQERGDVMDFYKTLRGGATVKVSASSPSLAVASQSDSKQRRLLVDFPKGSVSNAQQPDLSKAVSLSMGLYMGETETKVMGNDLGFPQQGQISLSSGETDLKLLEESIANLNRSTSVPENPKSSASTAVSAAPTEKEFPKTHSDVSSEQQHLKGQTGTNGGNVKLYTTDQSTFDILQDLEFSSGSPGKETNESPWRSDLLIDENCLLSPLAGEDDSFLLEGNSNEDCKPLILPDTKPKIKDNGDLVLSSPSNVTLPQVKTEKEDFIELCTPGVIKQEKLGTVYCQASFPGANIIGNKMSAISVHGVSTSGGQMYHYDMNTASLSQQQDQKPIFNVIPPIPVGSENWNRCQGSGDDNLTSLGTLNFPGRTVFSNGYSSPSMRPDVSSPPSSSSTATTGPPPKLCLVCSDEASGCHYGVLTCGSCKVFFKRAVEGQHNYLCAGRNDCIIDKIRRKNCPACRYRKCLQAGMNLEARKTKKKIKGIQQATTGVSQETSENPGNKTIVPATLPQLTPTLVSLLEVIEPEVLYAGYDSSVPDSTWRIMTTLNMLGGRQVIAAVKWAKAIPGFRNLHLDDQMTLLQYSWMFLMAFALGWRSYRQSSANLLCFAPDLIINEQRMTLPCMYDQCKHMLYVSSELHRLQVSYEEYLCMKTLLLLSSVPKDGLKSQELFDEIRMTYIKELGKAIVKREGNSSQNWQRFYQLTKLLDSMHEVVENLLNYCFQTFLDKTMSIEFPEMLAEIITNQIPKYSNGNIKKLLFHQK
In short: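 Partially purified full-length GR incubated with test compound and fluorescent dexamethasone plus GR-stabilising buffer components, 2 hr at room temperature in the dark. Binding scored as displacement of tracer, read as decrease in fluorescence polarisation.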

[3] = Assay for Brain Penetrance; assay type: in vivo; conditions: brain and plasma, rat, single intravenous dose 1 mg/kg, read-out: brain to plasma ratio
Method: Each rat received a single intravenous dose at a level of 1 mg/kg. The dose was formulated in 10% DMSO/50% PEG200/40% sterile water. Terminal blood samples were taken at 5 or 15 mins after dosing, by cardiac puncture following anaesthesia with isofluorane. The brains were removed at the same time point.
The compounds were extracted from 20 μL plasma by protein precipitation using 120 μL acetonitrile containing an analogue compound as an internal standard. The filtered extracts were collected into a 96 well plate and were diluted with an equal volume of 10% acetonitrile containing 0.1% formic acid in water (v/v). The plate was then mixed on a plate shaker for at least 5 mins before analysis by LC-MS/MS against a calibration line prepared in control plasma.
Each brain was weighed, then homogenised in 3 ml acetonitrile:water (10:90v/v). The compounds were extracted from 200 μL of the resulting homogenate by protein precipitation using 600 μL acetonitrile containing an analogue compound as an internal standard. The extracts were centrifuged and 150 μl of each was filtered and transferred to a 96 well plate. The aliquot was diluted with 10% acetonitrile containing 0.1% formic acid in water (v/v). The plate was mixed on a plate shaker for at least 5 mins before analysis by LC-MS/MS against a calibration line prepared in control brain homogenate.

Row | EC50 [1] | IC50 [2] | Kp at 5 min [3] | Structure (SMILES)
1 | > 1000 nM | < 1000 nM | ≥ 0.1 | CCN(CC(O)(CNC(=O)c1cnn(-c2ccc(F)cc2)c1N)C(F)(F)F)C(=O)c1cccc(F)c1F (racemic) [Example 5 (racemic), 5-Amino-N-(2-{[[(2,3-difluorophenyl)carbonyl](ethyl)amino]methyl}-3,3,3-trifluoro-2-hydroxypropyl)-1-(4-fluorophenyl)-1H-pyrazole-4-carboxamide]
2 | > 1000 nM | < 1000 nM | ≥ 0.1 | Nc1c(C(=O)NCC(O)(CN(CCF)C(=O)c2ccccc2)C(F)(F)F)cnn1-c1ccc(F)cc1 (racemic) [Example 1 (racemic), 5-Amino-1-(4-fluorophenyl)-N-(3,3,3-trifluoro-2-{[(2-fluoroethyl)(phenylcarbonyl)amino]methyl}-2-hydroxypropyl)-1H-pyrazole-4-carboxamide]
3 | > 1000 nM | < 1000 nM | ≥ 0.1 | Nc1c(C(=O)NCC(O)(CN(CCF)C(=O)c2ccccc2F)C(F)(F)F)cnn1-c1ccc(F)cc1 (racemic) [Example 2 (racemic), 5-Amino-1-(4-fluorophenyl)-N-[3,3,3-trifluoro-2-([(2-fluoroethyl)[(2-fluorophenyl)carbonyl]amino]methyl)-2-hydroxypropyl]-1H-pyrazole-4-carboxamide]
